Assays:
Assay type in all cases: in vivo, human
[1] = Comparative sensory study: sweetened fiber vs mixture of sweetener and fiber vs sweetener alone (Example 8); details: 9-point hedonic scale, 10% in water, N=12, FIG. 6
Protocol: The sensory characteristics of the sweetened fiber of the present disclosure were evaluated against a simple mixture of dietary fiber and stevia extract or stevia extract alone. The preference towards the sweetened fiber of the present disclosure, a mixture of dietary fiber and stevia extract, or stevia extract alone was determined. Any sensory difference between the sweetened fiber of the present disclosure versus a mixture of dietary fiber and stevia extract was evaluated.
Study design: randomized crossover. Twelve adults were recruited for the study. Samples were evaluated for pleasantness using 9-point hedonic scales (Peryam, D. R., Girardot, N. F. (1952). Advanced taste test method. Food Engineering, 24, 58-61, 194.). Unstructured scales such as visual analogue scales (VAS) are also used for the sensory evaluation of food (Baten, W. D. (1946). Organoleptic tests pertaining to apples and pears. Journal of Food Science, 11, 84-94.). The intensity of off-taste, bitterness and sweet aftertaste sweetness were determined using a 10-point scale. […]
Data analysis: The normality of the data was evaluated using D'Agostino & Pearson omnibus normality test. If the data didn't follow a normal distribution, the statistical significance of preference and intensity was assessed with the Kruskal-Wallis test using an alpha criterion of 5%. […]

[2] = Sensory evaluation: sucrose vs sweetened fiber vs stevia extract (Example 9); details: score 1 to 100; 10% sucrose, 10% sweet fiber, 0.05% RebM; FIG. 7
Protocol: A sensory evaluation session was conducted at BioFoodTech, to determine the taste difference between sucrose, the sweetened fiber of the present disclosure and stevia extract solutions. A group of twelve panelists formed a panel for the sensory evaluation. The ranking test measured the overall difference and intensity score for sensory attributes, including the strength of flavor, bitterness, liquorice taste and off-flavor.
A group of experienced panelists from BioFoodTech formed a panel for a sensory evaluation session to determine the quality difference between the sweet product samples.
Three 250 mL samples were prepared (10% solutions of sucrose, 10% the sweetened fiber of the present disclosure and 0.05% solution of Rebaudioside M (RebM). A sensory code consisting of a random 3-digit number was assigned to each sample.
Twelve experienced panelists were divided into two groups. A complete block design was chosen for the sensory evaluation of the […], including a ranking test used to determine the overall difference and intensity scoring for four […] attributes (strength of flavor, bitterness, liquorice taste and off-flavor). The four coded samples were presented to each panelist in a balanced order throughout the evaluation.
In the individual attributes evaluation, the panelists were asked to quantify the difference of specific attributes among the four samples by scoring from 1 to 100 (1 for none and 100 for the strongest, see FIG. 7) to reflect the intensity of the attribute best.

[3] = Double-blinded randomized crossover sensory study: sweetened fiber vs sucrose (Example 10); details: 10% solution
Protocol: The sensory characteristics of an example of the sweetened fiber of the present disclosure were evaluated and compared to those of sucrose. Any preference towards the exemplary sweetened fiber of the present disclosure or sucrose solutions was determined. The sensory acceptance of the exemplary sweetened fiber of the present disclosure and sucrose was evaluated. Study design: double-blinded, randomized crossover. Sixty adults (18-65 years old, 30 males and 30 females) were recruited for the study. […] Samples were evaluated for pleasantness, taste, flavour, sweetness, and mouthfeel using 9-point hedonic scales ([…]. (1952). Advanced taste test method. Food Engineering, 24, 58-61, 194). […] The intensity of sweetness, bitterness, and metallic taste was determined using a 100 mm Visual Analogue Scale (VAS). […] Data analysis: The preference towards either blinded samples of 10% solution of Sucrose or 10% solution of the exemplary sweetened fiber of the present disclosure was determined with a forced paired preference test ([…]., Heymann, H. (2010). Sensory evaluation of food. Springer, New York, NY.). […] If there was an effect of sex (P≤0.05), the data was analyzed separately for males and females. If there was no effect of sex (P>0.05), the pooled data for males and females was analyzed with the Friedman test followed by Dunn's multiple comparisons. […]

[4] = Sensory testing by a panel of twelve tasters (Example 4); details: 10% solution
Protocol: The taste of the sweetened fiber of the present disclosure prepared according to Example 1 was assessed by an external third party using a panel of tasters. A group of twelve panelists formed a panel for the sensory evaluation. The ranking test was used to measure the overall difference and intensity score for four sensory attributes, flavor, aftertaste, and mouthfeel. Each panelist evaluated all four samples. […] Sample Preparation: Two 250 mL samples were prepared (10% solutions of sucrose (control) and corn sweetened fiber of Example 1-1. A sensory code consisting of a random 3-digit number was assigned to each sample. Taste Session: The sensory evaluation was carried out at BioFoodTech's Sensory Lab. Twelve experienced panelists were divided into two groups. A complete block design was chosen for the sensory evaluation of the four samples, including a ranking test used to determine the overall difference. Statistical Analysis for the Data: For the individual attributes, Analysis of Variance (ANOVA) and the Tukey-Kramer HSD test were used to analyze the difference among sample means of individual attributes at a 5% significance level. For the Ranking test, a Friedman-type statistic was used to determine if there was a statistically significant difference among samples at a 5% significance level. All statistical analyses were done using the JMP®8 (SAS Institute Inc., Cary, NC).

| Compound | Pleasantness [1] | Mean score, bitterness [2] | Mean score, liquorice taste [2] | Mean score, off-flavor [2] | Mean score, strength of flavor [2] | Mean acceptance values on hedonic scales [3] | Rank mean (ranking taste preference) [4] | RankSum (ranking taste preference) [4] | Mouthfeel ([4]; n = 12) [%] | Off-flavour ([4]; n = 12) [%] | Sweetness ([4]; n = 12) [%] | Taste preference ([4]; n = 12) [%] |
| --- | --- | --- | --- | --- | --- | --- | --- | --- | --- | --- | --- | --- |
| C=C1C[C@@]23CC[C@H]4[C@@](C)(CCC[C@@]4(C)C(=O)O[C@@H]4O[C@H](CO)[C@@H](O)[C@H](O[C@@H]5O[C@H](CO)[C@@H](O)[C@H](O)[C@H]5O)[C@H]4O[C@@H]4O[C@H](CO)[C@@H](O)[C@H](O)[C@H]4O)[C@@H]2CC[C@]1(O[C@@H]1O[C@H](CO)[C@@H](O)[C@H](O[C@@H]2O[C@H](CO)[C@@H](O)[C@H](O)[C@H]2O)[C@H]1O[C@@H]1O[C@H](CO)[C@@H](O)[C@H](O)[C@H]1O)C3 [Rebaudioside M] | no differences | highest | highest | highest | highest | – | – | – | – | – | – | – |
| OC[C@H]1O[C@@](CO)(O[C@H]2O[C@H](CO)[C@@H](O)[C@H](O)[C@H]2O)[C@@H](O)[C@@H]1O [sucrose] | – | – | – | – | – | neutral or above the neutral | 2.58 | 31 | 73 | 0 | 100 | 98 |
